Our source for the KM values is publication PMC8859858 (Nanoscale, 2019).

For this assay, the target named is AdhD (AdhD-SP) (Pyrococcus furiosus, UniProt Q8TZM9). Put plainly: NADH disappearance at […] nm, Michaelis-Menten fit. It counts as biochemical. The conditions noted are these: free enzyme; NADH (A340 ~1.8); 100 mM sodium phosphate pH 6.2; 50 °C.

`CC(=O)C(C)O` (stereo not shown) [acetoin]: the KM entry is recorded as “The dependence of the reaction rate on acetoin followed Michaelis-Menten kinetics”.
